Test results from patent US20040023994A1 (priority 2002, published 2004).

Tests used:
CCRF-CEM = conditions: 48 h
HL-60(TB) = conditions: Leukemia, 48 h
SR = conditions: 48 h
LOX IMVI = conditions: 48 h
NCI-H23 = assay type: cell-based; conditions: NCI-H23, Non-Small Cell Lung, 48 h

CC(=O)C=CSc1ncnc2nc[nH]c12 [cis-AVTP, 6-(2-acetylvinylthio) purine]
GI50 (KM12; Homo sapiens, KM12, 48 h): 3.35 µM | CC50 (KM12; Homo sapiens, KM12, 48 h, read-out: LC50): > 100 µM | TGI (KM12; KM12, Colon, 48 h): 27.2 µM | GI50 (NCI-H460; Homo sapiens, NCI-H460, 48 h): 0.68 µM | CC50 (NCI-H460; Homo sapiens, NCI-H460, 48 h, read-out: LC50): 38.6 µM | TGI (NCI-H460; NCI-H460, Non-Small Cell Lung, 48 h): 8.71 µM | TGI (HOP-62; HOP-62, Non-Small Cell Lung, 48 h): 21.2 µM | GI50 (HOP-62; Homo sapiens, HOP-62, 48 h): 0.4 µM | CC50 (HOP-62; Homo sapiens, HOP-62, 48 h, read-out: LC50): 88.9 µM | GI50 (UACC-62; Homo sapiens, UACC-62, 48 h): 0.23 µM | CC50 (UACC-62; Homo sapiens, UACC-62, 48 h, read-out: LC50): 5.88 µM | TGI (UACC-62; UACC-62, Melanoma, 48 h): 1.10 µM | GI50 (CCRF-CEM; Homo sapiens): 0.2 µM | CC50 (CCRF-CEM; Homo sapiens, read-out: LC50): > 100 µM | TGI (CCRF-CEM; Leukemia): 2.17 µM | GI50 (MOLT-4; Homo sapiens, MOLT-4, 48 h): 0.36 µM | CC50 (MOLT-4; Homo sapiens, MOLT-4, 48 h, read-out: LC50): > 100 µM | TGI (MOLT-4; MOLT-4, Leukemia, 48 h): >100 µM | GI50 (OVCAR-3; Homo sapiens, OVCAR-3, 48 h): 0.03 µM | CC50 (OVCAR-3; Homo sapiens, OVCAR-3, 48 h, read-out: LC50): 8.67 µM | TGI (OVCAR-3; OVCAR-3, Ovarian, 48 h): 0.47 µM | GI50 (SF-539; Homo sapiens, SF-539, 48 h): 0.65 µM | CC50 (SF-539; Homo sapiens, SF-539, 48 h, read-out: LC50): 11.8 µM | TGI (SF-539; SF-539, CNS, 48 h): 2.86 µM | GI50 (OVCAR-4; Homo sapiens, OVCAR-4, 48 h): 0.51 µM | CC50 (OVCAR-4; Homo sapiens, OVCAR-4, 48 h, read-out: LC50): 25.6 µM | TGI (OVCAR-4; OVCAR-4, Ovarian, 48 h): 4.06 µM | TGI (HL-60(TB)): 4.95 µM | GI50 (SR; Homo sapiens): 0.17 µM | CC50 (SR; Homo sapiens, read-out: LC50): > 100 µM | TGI (SR; Leukemia): >100 µM | GI50 (LOX IMVI; Homo sapiens): 0.03 µM | CC50 (LOX IMVI; Homo sapiens, read-out: LC50): > 100 µM | TGI (LOX IMVI; Melanoma): 2.23 µM | GI50 (NCI-H23; Homo sapiens): 1.48 µM | CC50 (NCI-H23; Homo sapiens, read-out: LC50 (the source's name)): 27.8 µM | TGI (NCI-H23): 4.58 µM
